Data: patent US5183821A, “Method for treating leukemias using N-(2-dimethylaminoethyl)-3-amino-1,8-naphthalimide for treating leukemias and solid tumors” (priority 1991, dated 1993)
Values after ≈ are worked out from the molar mass of the structure shown. Values joined by “and” are separate entries in the source; they are usually repeats but may differ in a detail not shown here. Equal entries are not always repeated.

Assays:
[1] = type: physicochemical
Text: Stability: The reconstituted solution is stable for 14 days at room temperature. When further diluted 200-fold with normal saline the drug remains stable for 14 days at both room and refrigeration temperatures. The reconstituted solution is not stable when further diluted with 5% dextrose in water so this vehicle will not be used for infusions of the drug. Storage: The intact vials should be stored under refrigeration.
Stability: The reconstituted solution is stable for 14 days at room temperature. When further diluted 200-fold with normal saline the drugs remains stable for 14 days at both room and refrigeration temperatures. The reconstituted solution is not stable when further diluted with 5% dextrose in water so this vehicle will not be used for infusions of the drug. Storage: The intact vials should be stored under refrigeration.

Colon 38 [2] = test: Experiment 12 (first): Colon 38 s.c., saline with Tween-80, male; type: in vivo, Mouse B6 D2 F1 (BDF1)
Text: (§1) Host: Mouse B6 D2 F1 (BDF1)
(§2) Inoculum Site: Subcutaneous
(§3) Vehicle: Saline with Tween-80
Treatment schedule (relative to tumor inoculation day) days 2 and 9
(§4) Day of evaluation (relative to tumor inoculation day): 20
(§5) Parameter: Median tumor weight (MTW) estimated from tumor diameter
(§6) NCI minimal activity criteria: Percent T/C≤42
(§7) Percent T/C: Ratio of test (T) evaluation to control (C) evaluation expressed as a percentage

physchem = type: physicochemical
Method: While the compound was generally tested as a suspension in Tween-80, in one L1210 experiment it was tested as a solution in 0.1 N HCL diluted with saline. The level of activity (ILS=117%) was maintained. The solubilities of the compound in 0.01 N and 0.1 HCl are approximately 3 and 30 mg/ml, respectively.
Formulation: 100 mg drug and 1 N HCl lyophilized yield the salt. The lyophilized cake dissolves in 2 ml sterile water to yield a 50 mg/ml red solution at pH 5.0-7.0.

Colon 38 [3] = test: Experiment 15: Colon 38 s.c., saline with Tween-80, female; type: in vivo, Mouse B6 D2 F1 (BDF1)
Text: as §1, §2, §3
Treatment schedule (relative to tumor inoculation day): Days 2 and 9
as §4, §5, §6, §7

M5076 ovarian carcinoma = test: Experiment 21: M5076 i.p., 10^6 cells, acid diluted with saline, female; type: in vivo, Mouse
Text: Tumor: M5076 ovarian carcinoma
(§8) Inoculum Site: Intraperitoneal
Vehicle: Acid diluted with saline
Treatment schedule (relative to tumor inoculation day): every 4 days for 4 times
Day of evaluation (relative to tumor inoculation day): 60
Parameter: Mean survival time (MST) in days
NCI minimal activity criteria: Percent T/C≥125.
Percent T/C: Ratio of test (T) evaluation to control (C) evaluation expressed as a percentage.

[4] = test system: P388 Lymphocytic leukemia; test: NCI screen, P388 Lymphocytic leukemia, intraperitoneal (summary); type: in vivo, Mouse; settings: for maximum increased life span: days 2-9 as printed; for Antitumor activity in words: P388
Text: The activity of the compound has been evaluated by experiments carried out under the auspices of the Division of Cancer Treatment, National Cancer Institute, employing techniques considered to be reliable indicators of chemotherapeutic utility in the treatment of forms of cancer in human patients. The details of the methodology employed in the reported experiments may be determined with reference to established NCI screening methods.
In the experiments conducted by the NCI, evaluation of activity is made on the basis of appropriate parameters, such as median survival time (MST) or change in average tumor diameter (CATD)in ocular micrometer units (OMU).
The compound was found initially to be active in the P388 leukemia pre-screen, with T/C values (ratio of Test (T) evaluation to control (C) evaluation expressed as a percentage) of 177 and 176. Both values exceed the minimum T/C values for interest by the Decision Network Committe.

[5] = design: species or system human
Text: Further studies were done using heparinized plasma (two additional human donors) and with EDTA plasma (one donor). […] Human EDTA plasma was compatible with drug at a 1:32 drug/plasma ratio.

HeLa cells = settings: cytotoxic activity in vitro, monolayer; cited from earlier work
L-1210 Lymphoid leukemia [6] = test: Experiment 1: L-1210 i.p., 10^4 cells, acid diluted with saline, male; type: in vivo, Mouse CD2 F1 (CDF1)
Text: (§9) Host: Mouse CD2 F1 (CDF1)
(§10) Tumor: L-1210 Lymphoid leukemia
Inoculum Site: intraperitoneal
Vehicle: Acid Diluted with saline
(§11) Treatment schedule (relative to tumor inoculation day): daily on days 1-9
(§12) Day of evaluation (relative to tumor inoculation day): 30
(§13) Parameter: Median survival time (MST) in days
(§14) NCI minimal activity criteria: Percent T/C≥125
as §7

L-1210 Lymphoid leukemia [7] = test: Experiment 6: L-1210 i.p., 10^4 cells, saline with Tween-80, male; type: in vivo, Mouse CD2 F1 (CDF1)
Text: as §9, §10, §8, §3, §11, §12, §13, §14, §7

[8] = 16.00 mg/kg i.p., control MTW outside normal limits
[9] = 32.00 mg/kg i.p., control MTW outside normal limits
[10] = 64.00 mg/kg i.p., control MTW outside normal limits

CN(C)CCN1C(=O)c2cccc3cc(N)cc(c23)C1=O [Example 9, 1H-Benz[de]isoquinoline-1,3(2H)-dione, 5-amino-2-[2-(dimethylamino)ethyl]]
stability of reconstituted solution [1]: 14 days | stability, diluted 200-fold with normal saline [1]: 14 days | stability, diluted with 5% dextrose in water [1]: not stable | Median tumor weight (MTW) (Colon 38 [2]; 2.00 mg/kg i.p.): 685 | Percent T/C (Colon 38 [2]; 2.00 mg/kg i.p.): 72% | Median tumor weight (MTW) (Colon 38 [2]; 4.00 mg/kg i.p.): 775 | Percent T/C (Colon 38 [2]; 4.00 mg/kg i.p.): 81% | Median tumor weight (MTW) (Colon 38 [2]; 8.00 mg/kg i.p.): 861 | Percent T/C (Colon 38 [2]; 8.00 mg/kg i.p.): 90% | Median tumor weight (MTW) (Colon 38 [2]; 16.00 mg/kg i.p.): 733 | Percent T/C (Colon 38 [2]; 16.00 mg/kg i.p.): 77% | Median tumor weight (MTW) (Colon 38 [2]; 32.00 mg/kg i.p.): 270 | Percent T/C (Colon 38 [2]; 32.00 mg/kg i.p.): 28% | Median tumor weight (MTW) (Colon 38 [2]; 64.00 mg/kg i.p.): 252 | Percent T/C (Colon 38 [2]; 64.00 mg/kg i.p.): 26% | solubility (physchem; 0.01 n hcl): ~3 mg/mL (≈ 10.6 mM) | solubility (physchem; 0.1 hcl): ~30 mg/mL (≈ 106 mM) | pH of reconstituted solution (physchem; lyophilized cake in 2 ml sterile water): 5.0-7.0 | Median tumor weight (MTW) (Colon 38 [3]; [8]): 2261 | Percent T/C (Colon 38 [3]; [8]): 108% | Median tumor weight (MTW) (Colon 38 [3]; [9]): 1440 | Percent T/C (Colon 38 [3]; [9]): 69% | Median tumor weight (MTW) (Colon 38 [3]; [10]): 368 | Percent T/C (Colon 38 [3]; [10]): 17% | Median tumor weight (MTW) (Colon 38 [3]; 128.00 mg/kg i.p.): Deaths before evaluation | Mean survival time (MST) (M5076 ovarian carcinoma; 4.50 mg/kg i.p.): 29,0 days | Percent T/C (M5076 ovarian carcinoma; 4.50 mg/kg i.p.): 109% | Mean survival time (MST) (M5076 ovarian carcinoma; 9,00 mg/kg i.p.): 28,7 days | Percent T/C (M5076 ovarian carcinoma; 9,00 mg/kg i.p.): 107% | Mean survival time (MST) (M5076 ovarian carcinoma; 18,00 mg/kg i.p.): 30,8 days | Percent T/C (M5076 ovarian carcinoma; 18,00 mg/kg i.p.): 115% | Mean survival time (MST) (M5076 ovarian carcinoma; 36,00 mg/kg i.p.): 37,0 days | Percent T/C (M5076 ovarian carcinoma; 36,00 mg/kg i.p.): 139% | Mean survival time (MST) (M5076 ovarian carcinoma; 72,00 mg/kg i.p.): Toxic. | maximum increased life span ([4]; 8 mg/kg i.p.): 76% | maximum increased life span ([4]; 16 mg/kg i.p.): 77% | Antitumor activity in words ([4]; listed as BIDA): active | Antitumor activity in words ([4]; listed as the compound): at least a reproducible minimal activity | Table II evaluation ([4]; median survival time, 9 tests, full wrapped cell: Reproducible minimal activity): Reproducible minimal | T/C values in the P388 leukemia pre-screen ([4]; test/control as percentage, listed as the compound): 177% and 176% | blood compatibility [5]: compatible | ID50 in HeLa cells (HeLa cells): 2.5 µg/mL (≈ 0.00882 mM) | Median survival time (MST) (L-1210 Lymphoid leukemia [6]; 2.00 mg/kg i.p.): 9.9 days | Percent T/C (L-1210 Lymphoid leukemia [6]; 2.00 mg/kg i.p.): 107% | Median survival time (MST) (L-1210 Lymphoid leukemia [6]; 4.00 mg/kg i.p.): 10.4 days | Percent T/C (L-1210 Lymphoid leukemia [6]; 4.00 mg/kg i.p.): 113% | Median survival time (MST) (L-1210 Lymphoid leukemia [6]; 8.00 mg/kg i.p.): 12.3 days | Percent T/C (L-1210 Lymphoid leukemia [6]; 8.00 mg/kg i.p.): 133% | Median survival time (MST) (L-1210 Lymphoid leukemia [6]; 16.00 mg/kg i.p.): 20.0 days | Percent T/C (L-1210 Lymphoid leukemia [6]; 16.00 mg/kg i.p.): 217% | Median survival time (MST) (L-1210 Lymphoid leukemia [6]; 32.00 mg/kg i.p.): 8.8 days | Percent T/C (L-1210 Lymphoid leukemia [6]; 32.00 mg/kg i.p.): 95% | Median survival time (MST) (L-1210 Lymphoid leukemia [7]; 2.00 mg/kg i.p.): 9.7 days | Percent T/C (L-1210 Lymphoid leukemia [7]; 2.00 mg/kg i.p.): 105% | Median survival time (MST) (L-1210 Lymphoid leukemia [7]; 4.00 mg/kg i.p.): 10.7 days | Percent T/C (L-1210 Lymphoid leukemia [7]; 4.00 mg/kg i.p.): 116% | Median survival time (MST) (L-1210 Lymphoid leukemia [7]; 8.00 mg/kg i.p.): 12.0 days | Percent T/C (L-1210 Lymphoid leukemia [7]; 8.00 mg/kg i.p.): 130% | Median survival time (MST) (L-1210 Lymphoid leukemia [7]; 16.00 mg/kg i.p.): 19.0 days | Percent T/C (L-1210 Lymphoid leukemia [7]; 16.00 mg/kg i.p.): 200% | Median survival time (MST) (L-1210 Lymphoid leukemia [7]; 32.00 mg/kg i.p.): 8.3 days | Percent T/C (L-1210 Lymphoid leukemia [7]; 32.00 mg/kg i.p.): 90%
